Data: the NIST ThermoML archive (doi:10.1016/j.jct.2007.09.007)
± gives the expanded uncertainty stated by the source.

Details: 101.33 kPa, Liquid

SMILES: CC(C)OC(C)C [diisopropyl ether]
- mass density (288.15 K): 728.82 ± 0.94 kg/m3
- mass density (293.15 K): 723.67 ± 0.95 kg/m3
- mass density (298.15 K): 718.46 ± 0.96 kg/m3
- mass density (303.15 K): 713.21 ± 0.97 kg/m3

SMILES: C1COCCO1 [1,4-dioxane]
- mass density (288.15 K): 1038.78 ± 0.24 kg/m3
- mass density (293.15 K): 1033.16 ± 0.23 kg/m3
- mass density (298.15 K): 1027.51 ± 0.22 kg/m3
- mass density (303.15 K): 1021.84 ± 0.21 kg/m3

SMILES: CC#N [acetonitrile]
- mass density (288.15 K): 787.38 ± 0.23 kg/m3
- mass density (293.15 K): 782.01 ± 0.24 kg/m3
- mass density (298.15 K): 776.62 ± 0.24 kg/m3
- mass density (303.15 K): 771.19 ± 0.25 kg/m3

SMILES: C1CCOC1 [tetrahydrofuran]
- mass density (288.15 K): 892.86 ± 0.33 kg/m3
- mass density (293.15 K): 887.52 ± 0.34 kg/m3
- mass density (298.15 K): 882.04 ± 0.35 kg/m3
- mass density (303.15 K): 876.54 ± 0.36 kg/m3
